Data taken from ChEMBL document CHEMBL5316325, “Design and Synthesis of 3-Hydroxy-pyridin-4(1H)-ones-Ciprofloxacin Conjugates as Dual Antibacterial and Antibiofilm Agents against Pseudomonas aeruginosa” (J Med Chem, 2023).
Values after ≈ are worked out from the molar mass of the structure shown.

Legend:
Format in all cases: functional
Pseudomonas aeruginosa [1] = assay: Antibacterial activity against Pseudomonas aeruginosa ATCC 27853 in MHB medium assessed as bacterial growth inhibition by CLSI based broth microdilution method
Staphylococcus aureus [2] = assay: Antibacterial activity against Staphylococcus aureus ATCC 25923 in MHB medium assessed as bacterial growth inhibition by CLSI based broth microdilution method
Pseudomonas aeruginosa [3] = assay: Antibiofilm activity against Pseudomonas aeruginosa PAO1 in ABTGC medium assessed as biofilm biomass at 1/2 times MIC incubated for 24 hrs by crystal violet staining based assay relative to control
Escherichia coli = assay: Antibacterial activity against Escherichia coli ATCC 25922 in MHB medium assessed as bacterial growth inhibition by CLSI based broth microdilution method
Pseudomonas aeruginosa [4] = assay: Antibacterial activity against Pseudomonas aeruginosa PAO1 in ABTGC medium assessed as bacterial growth inhibition
Pseudomonas aeruginosa [5] = assay: Antibacterial activity against Pseudomonas aeruginosa 1167 in MHB medium assessed as bacterial growth inhibition by CLSI based broth microdilution method
Pseudomonas aeruginosa [6] = assay: Antibacterial activity against Pseudomonas aeruginosa FB in MHB medium assessed as bacterial growth inhibition by CLSI based broth microdilution method
Pseudomonas aeruginosa [7] = assay: Antibiofilm activity against Pseudomonas aeruginosa PAO1 in ABTGC medium assessed as biofilm biomass at 1/4 times MIC incubated for 24 hrs by crystal violet staining based assay relative to control
Klebsiella pneumoniae = assay: Antibacterial activity against Klebsiella pneumoniae ATCC 700603 in MHB medium assessed as bacterial growth inhibition by CLSI based broth microdilution method
Staphylococcus aureus [8] = assay: Antibacterial activity against methicillin-resistant Staphylococcus aureus ATCC 515992 in MHB medium assessed as bacterial growth inhibition by CLSI based broth microdilution method
Pseudomonas aeruginosa [9] = assay: Antibacterial activity against Pseudomonas aeruginosa PAO1 in MHB medium assessed as bacterial growth inhibition by CLSI based broth microdilution method
Pseudomonas aeruginosa [10] = assay: Antibacterial activity against Pseudomonas aeruginosa 1121 in MHB medium assessed as bacterial growth inhibition by CLSI based broth microdilution method
Pseudomonas aeruginosa [11] = assay: Antibiofilm activity against Pseudomonas aeruginosa PAO1 in ABTGC medium assessed as biofilm biomass at MIC incubated for 24 hrs by crystal violet staining based assay relative to control
Pseudomonas aeruginosa [12] = assay: Antibacterial activity against Pseudomonas aeruginosa 1129 in MHB medium assessed as bacterial growth inhibition by CLSI based broth microdilution method

SMILES | MIC (Pseudomonas aeruginosa [1]) | MIC (Staphylococcus aureus [2]) | Activity (Pseudomonas aeruginosa [3]) | MIC (Escherichia coli) | MIC (Pseudomonas aeruginosa [4]) | MIC (Pseudomonas aeruginosa [5]) | MIC (Pseudomonas aeruginosa [6]) | Activity (Pseudomonas aeruginosa [7]) | MIC (Klebsiella pneumoniae) | MIC (Staphylococcus aureus [8]) | MIC (Pseudomonas aeruginosa [9]) | MIC (Pseudomonas aeruginosa [10]) | Activity (Pseudomonas aeruginosa [11]) | MIC (Pseudomonas aeruginosa [12])
Cc1cc(=O)c(O)c(CNC(=O)CCCCC(=O)N2CCN(c3cc4c(cc3F)c(=O)c(C(=O)O)cn4C3CC3)CC2)n1C | 3.28 µM (≈ 2 µg/mL) | 13.1 µM (≈ 8 µg/mL) | 86.3% | 0.05 µM (≈ 0.0305 µg/mL) | 13.1 µM (≈ 8 µg/mL) | 3.28 µM (≈ 2 µg/mL) | 3.28 µM (≈ 2 µg/mL) | 27% | 6.56 µM (≈ 4 µg/mL) | > 200 µM | 1.64 µM (≈ 1 µg/mL) | 3.28 µM (≈ 2 µg/mL) | 23.3% | 6.56 µM (≈ 4 µg/mL)
O=C(CCC(=O)N1CCN(c2cc3c(cc2F)c(=O)c(C(=O)O)cn3C2CC2)CC1)NCc1cc(=O)c(O)c[nH]1 | 7.23 µM (≈ 4 µg/mL) | 3.61 µM (≈ 2 µg/mL) | 98.8% | 0.23 µM (≈ 0.127 µg/mL) | 14.4 µM (≈ 8 µg/mL) | 3.61 µM (≈ 2 µg/mL) | 7.23 µM (≈ 4 µg/mL) | 19.9% | 14.4 µM (≈ 8 µg/mL) | > 200 µM | 1.81 µM (≈ 1 µg/mL) | 3.61 µM (≈ 2 µg/mL) | 169.8% | 7.23 µM (≈ 4 µg/mL)
O=C(CCC(=O)N1CCN(c2cc3c(cc2F)c(=O)c(C(=O)O)cn3C2CC2)CC1)NCc1cc(=O)c(O)cn1O | 7.02 µM (≈ 4 µg/mL) | 28.1 µM (≈ 16 µg/mL) | 54.2% | 0.22 µM (≈ 0.125 µg/mL) | 14.1 µM (≈ 8 µg/mL) | 3.51 µM (≈ 2 µg/mL) | 7.02 µM (≈ 4 µg/mL) | 48.9% | 14.1 µM (≈ 8 µg/mL) | > 200 µM | 1.76 µM (≈ 1 µg/mL) | 7.02 µM (≈ 4 µg/mL) | 137% | 7.02 µM (≈ 4 µg/mL)
Cc1cc(=O)c(O)c(CNC(=O)CCC(CCC(=O)NCc2c(O)c(=O)cc(C)n2C)(CCC(=O)NCc2c(O)c(=O)cc(C)n2C)NC(=O)CCC(=O)N2CCN(c3cc4c(cc3F)c(=O)c(C(=O)O)cn4C3CC3)CC2)n1C | 7.2 µM (≈ 8 µg/mL) | 14.4 µM (≈ 16 µg/mL) | 20.9% | 0.22 µM (≈ 0.244 µg/mL) | 115 µM (≈ 128 µg/mL) | 14.4 µM (≈ 16 µg/mL) | 28.8 µM (≈ 32 µg/mL) | 211.1% | 14.4 µM (≈ 16 µg/mL) | > 200 µM | 14.4 µM (≈ 16 µg/mL) | 28.8 µM (≈ 32 µg/mL) | 20.7% | 57.6 µM (≈ 64 µg/mL)
Cc1cc(=O)c(O)cn1CCCn1cc(CCC(=O)N2CCN(c3cc4c(cc3F)c(=O)c(C(=O)O)cn4C3CC3)CC2)nn1 | 103 µM (≈ 64 µg/mL) | > 200 µM | 127.7% | 51.6 µM (≈ 32 µg/mL) | > 200 µM | 103 µM (≈ 64 µg/mL) | 103 µM (≈ 64 µg/mL) | 97.6% | > 200 µM | > 200 µM | 103 µM (≈ 64 µg/mL) | 103 µM (≈ 64 µg/mL) | 71.7% | 103 µM (≈ 64 µg/mL)
Cc1cc(=O)c(O)cn1CCCNC(=O)CCC(=O)N1CCN(c2cc3c(cc2F)c(=O)c(C(=O)O)cn3C2CC2)CC1 | 6.72 µM (≈ 4 µg/mL) | 6.72 µM (≈ 4 µg/mL) | 78.2% | 0.42 µM (≈ 0.25 µg/mL) | 53.7 µM (≈ 32 µg/mL) | 3.36 µM (≈ 2 µg/mL) | 3.36 µM (≈ 2 µg/mL) | 116.3% | 13.4 µM (≈ 8 µg/mL) | > 200 µM | 3.36 µM (≈ 2 µg/mL) | 6.72 µM (≈ 4 µg/mL) | 92.1% | 6.36 µM (≈ 3.79 µg/mL)
Cn1cc(O)c(=O)cc1CNC(=O)CCCC(=O)N1CCN(c2cc3c(cc2F)c(=O)c(C(=O)O)cn3C2CC2)CC1 | 3.44 µM (≈ 2 µg/mL) | 13.8 µM (≈ 8 µg/mL) | 189% | 0.11 µM (≈ 0.064 µg/mL) | 13.8 µM (≈ 8 µg/mL) | 1.72 µM (≈ 1 µg/mL) | 3.44 µM (≈ 2 µg/mL) | 23.4% | 6.72 µM (≈ 3.91 µg/mL) | > 200 µM | 0.86 µM (≈ 0.5 µg/mL) | 3.44 µM (≈ 2 µg/mL) | 75.3% | 6.88 µM (≈ 4 µg/mL)
Cn1cc(O)c(=O)cc1Cn1cc(CCC(=O)N2CCN(c3cc4c(cc3F)c(=O)c(C(=O)O)cn4C3CC3)CC2)nn1 | 108 µM (≈ 64 µg/mL) | > 200 µM | 133.7% | 3.38 µM (≈ 2 µg/mL) | > 200 µM | 54.1 µM (≈ 32 µg/mL) | 108 µM (≈ 64 µg/mL) | 99.4% | > 200 µM | > 200 µM | 27.1 µM (≈ 16 µg/mL) | 108 µM (≈ 64 µg/mL) | 52.1% | 108 µM (≈ 64 µg/mL)
Cc1cc(=O)c(O)c(CNC(=O)CCC(CCC(=O)NCc2c(O)c(=O)cc(C)n2C)(CCC(=O)NCc2c(O)c(=O)cc(C)n2C)NC(=O)CCCC(=O)N2CCN(c3cc4c(cc3F)c(=O)c(C(=O)O)cn4C3CC3)CC2)n1C | 7.11 µM (≈ 8 µg/mL) | 14.2 µM (≈ 16 µg/mL) | 79.3% | 0.22 µM (≈ 0.248 µg/mL) | 14.2 µM (≈ 16 µg/mL) | 1.78 µM (≈ 2 µg/mL) | 3.55 µM (≈ 3.99 µg/mL) | 26.1% | 14.2 µM (≈ 16 µg/mL) | > 200 µM | 1.78 µM (≈ 2 µg/mL) | 3.55 µM (≈ 3.99 µg/mL) | 12.7% | 7.11 µM (≈ 8 µg/mL)
Cc1cc(=O)c(O)c(CNC(=O)CCC(CCC(=O)NCc2c(O)c(=O)cc(C)n2C)(CCC(=O)NCc2c(O)c(=O)cc(C)n2C)NC(=O)CCCCC(=O)N2CCN(c3cc4c(cc3F)c(=O)c(C(=O)O)cn4C3CC3)CC2)n1C | 7.02 µM (≈ 8 µg/mL) | 14 µM (≈ 16 µg/mL) | 9.6% | 0.22 µM (≈ 0.251 µg/mL) | 56.2 µM (≈ 64 µg/mL) | 7.02 µM (≈ 8 µg/mL) | 14 µM (≈ 16 µg/mL) | 158.1% | 14 µM (≈ 16 µg/mL) | > 200 µM | 3.51 µM (≈ 4 µg/mL) | 14 µM (≈ 16 µg/mL) | 15.1% | 28.1 µM (≈ 32 µg/mL)
Cn1cc(O)c(=O)cc1CNC(=O)CCC(=O)N1CCN(c2cc3c(cc2F)c(=O)c(C(=O)O)cn3C2CC2)CC1 | 1.76 µM (≈ 0.999 µg/mL) | 7.05 µM (≈ 4 µg/mL) | 110.3% | 0.06 µM (≈ 0.0341 µg/mL) | 7.05 µM (≈ 4 µg/mL) | 0.88 µM (≈ 0.499 µg/mL) | 1.76 µM (≈ 0.999 µg/mL) | 29.2% | 3.52 µM (≈ 2 µg/mL) | > 200 µM | 0.88 µM (≈ 0.499 µg/mL) | 1.76 µM (≈ 0.999 µg/mL) | 55.3% | 3.52 µM (≈ 2 µg/mL)
Cc1cc(=O)c(O)c(CNC(=O)CCCCCCC(=O)N2CCN(c3cc4c(cc3F)c(=O)c(C(=O)O)cn4C3CC3)CC2)n1C | > 200 µM | 50.2 µM (≈ 32 µg/mL) | 114.9% | 6.27 µM (≈ 4 µg/mL) | 128 µM (≈ 81.6 µg/mL) | > 200 µM | > 200 µM | 141.1% | > 200 µM | > 200 µM | > 200 µM | > 200 µM | 99.9% | > 200 µM
Cc1cc(=O)c(O)c(CNC(=O)CCCC(=O)N2CCN(c3cc4c(cc3F)c(=O)c(C(=O)O)cn4C3CC3)CC2)n1C | 0.86 µM (≈ 0.512 µg/mL) | 53.7 µM (≈ 32 µg/mL) | 116.8% | 0.21 µM (≈ 0.125 µg/mL) | 128 µM (≈ 76.2 µg/mL) | 6.72 µM (≈ 4 µg/mL) | 13.4 µM (≈ 8 µg/mL) | 84.1% | 26.9 µM (≈ 16 µg/mL) | > 200 µM | 6.72 µM (≈ 4 µg/mL) | 6.72 µM (≈ 4 µg/mL) | 39.5% | 13.4 µM (≈ 8 µg/mL)
Cn1cc(O)c(=O)cc1CNC(=O)CCCCC(=O)N1CCN(c2cc3c(cc2F)c(=O)c(C(=O)O)cn3C2CC2)CC1 | 3.36 µM (≈ 2 µg/mL) | 13.4 µM (≈ 8 µg/mL) | 110.3% | 0.1 µM (≈ 0.0596 µg/mL) | 6.72 µM (≈ 4 µg/mL) | 1.68 µM (≈ 1 µg/mL) | 3.36 µM (≈ 2 µg/mL) | 24.9% | 6.72 µM (≈ 4 µg/mL) | > 200 µM | 0.84 µM (≈ 0.5 µg/mL) | 1.68 µM (≈ 1 µg/mL) | 86.4% | 6.72 µM (≈ 4 µg/mL)
